Laboratory results from PMC12140300, “Development of Carbon‐11 Labeled Pyrimidine Derivatives as Novel Positron Emission Tomography (PET) Agents Enabling Brain Sigma‐1 Receptor Imaging” (Advanced Science, 2025).

Legend:
M5 = target: T1, M5 (Homo sapiens, UniProt P08912); assay: PDSP radioligand assay; assay type: binding
T1 sequence (P08912 1-532): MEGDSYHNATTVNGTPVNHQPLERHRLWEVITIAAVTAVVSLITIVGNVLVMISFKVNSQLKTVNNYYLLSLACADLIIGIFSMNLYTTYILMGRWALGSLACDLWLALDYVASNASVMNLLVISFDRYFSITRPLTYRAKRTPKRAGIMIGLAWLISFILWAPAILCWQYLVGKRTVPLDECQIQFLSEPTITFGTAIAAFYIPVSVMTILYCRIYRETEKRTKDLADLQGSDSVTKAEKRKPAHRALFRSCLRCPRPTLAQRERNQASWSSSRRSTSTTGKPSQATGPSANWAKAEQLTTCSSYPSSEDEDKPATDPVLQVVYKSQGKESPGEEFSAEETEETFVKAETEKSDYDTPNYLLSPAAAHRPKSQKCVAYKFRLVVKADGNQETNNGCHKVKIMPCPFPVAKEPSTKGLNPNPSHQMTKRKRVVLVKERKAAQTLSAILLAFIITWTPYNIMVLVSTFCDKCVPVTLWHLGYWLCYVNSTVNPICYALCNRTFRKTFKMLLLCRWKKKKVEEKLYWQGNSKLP

NET = NET (Homo sapiens, UniProt P23975); assay: PDSP radioligand assay; assay type: binding
Sequence of NET (P23975 whole entry): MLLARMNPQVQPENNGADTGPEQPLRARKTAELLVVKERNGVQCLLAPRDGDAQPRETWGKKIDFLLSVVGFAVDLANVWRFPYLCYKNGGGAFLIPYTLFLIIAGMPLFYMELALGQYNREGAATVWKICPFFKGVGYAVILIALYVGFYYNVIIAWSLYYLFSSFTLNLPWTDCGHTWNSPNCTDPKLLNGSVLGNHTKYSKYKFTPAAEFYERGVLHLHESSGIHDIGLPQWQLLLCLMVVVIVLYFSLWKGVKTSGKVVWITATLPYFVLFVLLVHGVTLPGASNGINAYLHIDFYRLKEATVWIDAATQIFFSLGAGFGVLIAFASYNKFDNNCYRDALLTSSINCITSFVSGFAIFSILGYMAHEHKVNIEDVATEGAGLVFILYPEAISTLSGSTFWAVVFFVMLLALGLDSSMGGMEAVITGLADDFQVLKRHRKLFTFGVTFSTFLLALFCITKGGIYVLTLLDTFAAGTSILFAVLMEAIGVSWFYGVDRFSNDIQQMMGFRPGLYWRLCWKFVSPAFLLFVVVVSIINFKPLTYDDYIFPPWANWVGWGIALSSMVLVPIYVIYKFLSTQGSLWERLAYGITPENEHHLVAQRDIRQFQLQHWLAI

σ1R = target: T2, σ1R (Mus musculus, UniProt O55242); assay: PET/CT imaging in 5xFAD transgenic and WT mice; assay type: in vivo, 5xFAD mice; details: 6-month-old male mice, PET/CT 30–60 min
T2 construct: The PET/CT studies in mice followed previously reported procedures; from tissue; host or cells: mouse brain in vivo (C57BL/6 wild type; 5xFAD transgenic)
T2 sequence (O55242 whole entry): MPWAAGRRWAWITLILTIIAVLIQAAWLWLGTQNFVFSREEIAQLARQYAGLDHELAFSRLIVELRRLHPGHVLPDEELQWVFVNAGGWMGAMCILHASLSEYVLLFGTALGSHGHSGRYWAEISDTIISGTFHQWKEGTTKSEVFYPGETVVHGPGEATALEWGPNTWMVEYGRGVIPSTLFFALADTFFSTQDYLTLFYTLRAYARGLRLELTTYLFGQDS
Source text: Numerous studies have shown that σ 1R is abnormally expressed in the AD brain, and targeting σ 1R becomes a promising strategy for diagnosis and treatment of AD.^[ [11], [49] ^] To evaluate the diagnostic potential of [^11C]CNY‐01 for AD and its potential application in studying the relationship between the σ 1R and AD pathology, we conducted PET imaging studies on 5xFAD transgenic mice model and the corresponding wild‐type (WT) mice. […] Of particular note, brain regions with relatively high σ 1R expression observed higher reduction of radioactivity uptake, such as the striatum, hippocampus, and cerebellum, indicating a decrease in σ 1R expression in the brain under AD pathological conditions, consistent with previous reports (Figure 5B).^[ [11], [49], [50] ^]
Figure 5 PET/CT imaging studies of [^11C]CNY‐01 in WT and 5xFAD mouse model. A) Representative PET/CT images (30–60 min) focused on the WT and 5xFAD mice brain. (n = 4). […] Data were presented as mean ± standard error of the mean (SEM). Quantification of results was performed using Student's t‐test (****p < 0.0001, ***p < 0.001, **p < 0.01, […]).
The PET/CT studies in mice followed previously reported procedures with minor modifications.^[ [53], [54] ^] […] Reconstructed images were exported from the scanner in DICOM format and were analyzed using PMOD (PMOD 4.01).

[1] = NHP plasma and metabolite analysis; assay type: in vivo, rhesus macaque; details: 30-minute mark
Source text: Understanding the metabolism of [^11C]CNY‐01 is crucial for modeling its distribution kinetics and evaluating safety profiles. Figure 4B illustrates the presence of radiometabolites in arterial plasma following a bolus injection of [^11C]CNY‐01. […] This characteristic makes it well‐suited for kinetic modeling and reducing background signal interference.
During the PET/MR scanning, macaque arterial blood samples were collected synchronously. Metabolite extraction and analysis were based on published methods.^[ [54], [60] ^] Briefly, the blood samples were centrifuged to isolate plasma. Next, protein precipitation was achieved by mixing the plasma with acetonitrile (v/v = 1). The mixture was then centrifuged again to obtain protein‐free plasma. A 1 mL aliquot of the protein‐free supernatant was diluted in 4 mL of deionized water, and the radiometabolites were analyzed by HPLC. HPLC condition: Mobile Phase A: water + 0.1% formic acid; Mobile Phase B: acetonitrile + 0.1% formic acid; separation method = 95/5 – 50/50 A/B from 3–8 min linear gradient; 50/50–5/95 A/B from 8–10 min linear gradient; 5/95 A/B from 10–11 min isocratic; flow rate 2 mL min^−1.

COc1ccc(-c2nc(C)c(Cl)c(OCCCN3CCCCC3)n2)cc1 [CNY-01, 5‐chloro‐2‐(4‐methoxyphenyl)‐4‐methyl‐6‐(3‐(piperidin‐1‐yl)propoxy)pyrimidine]
Ki (M5): > 10 µM | inhibition at 10 µM (M5): 59.1% | Ki (NET): 2.1 µM | inhibition at 10 µM (NET): 50.4%

Cc1nc(-c2ccc(Cl)cc2)nc(OCCCN2CCN(C)CC2)c1Cl [CNY-02, 5‐chloro‐2‐(4‐chlorophenyl)‐4‐methyl‐6‐(3‐(4‐methylpiperazin‐1‐yl)propoxy)pyrimidine]
Ki (M5): 2.5 µM | inhibition at 10 µM (M5): 83.3% | inhibition at 10 µM (NET): 0.14%

Cc1nc(-c2ccc(O[11CH3])cc2)nc(OCCCN2CCCCC2)c1Cl [[^11C]CNY-01]
brain uptake in 5xFAD mice compared to WT mice (σ1R): significantly lower uptake | parent compound present in plasma [1]: over 30%
